We go through three compounds from patent US20240158368A1, “Pyrrolidine Main Protease Inhibitors as Antiviral Agents” (AbbVie Inc., priority 2022, published 2024).

The nature of data set [1]: in vitro. To be noted: PAMPA. (PAMPA measures passive passage across an artificial lipid membrane.)
The target in another data set is MERS Mpro (Middle East respiratory syndrome-related coronavirus (isolate United Kingdom/H123990006/2012) (MERS-CoV) (Betacoronavirus England 1), UniProt K9N7C7). Put plainly: biochemical.
MERS Mpro, sequence (K9N7C7 3248-3553 limits assumed): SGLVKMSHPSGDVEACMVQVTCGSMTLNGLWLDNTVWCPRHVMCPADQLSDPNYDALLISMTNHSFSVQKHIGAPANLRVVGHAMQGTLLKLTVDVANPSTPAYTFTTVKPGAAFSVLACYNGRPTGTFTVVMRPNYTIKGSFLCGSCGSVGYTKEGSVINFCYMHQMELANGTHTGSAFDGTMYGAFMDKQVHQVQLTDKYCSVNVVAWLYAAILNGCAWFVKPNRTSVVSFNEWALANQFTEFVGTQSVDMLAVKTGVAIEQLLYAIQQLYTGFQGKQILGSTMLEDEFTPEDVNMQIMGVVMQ
The next data set has as its target SARS-CoV-2 Mpro (Severe acute respiratory syndrome coronavirus 2 (2019-nCoV) (SARS-CoV-2), UniProt P0DTD1). Format: biochemical.
A short description of data set [2]: in vitro. Conditions: rat, microsomes, pH 7.4.
Another data set has as its target OC43 Mpro (Human coronavirus OC43 (HCoV-OC43), UniProt P0C6X6). The format is biochemical.
Data set [3] can be described thus: in vitro. To be noted: human, microsomes, pH 7.4.
Data set [4] relates to SARS-CoV-2 (strain USA-WA1/2020). Put plainly: microbe, parasite or virus in culture. Format: cell-based. To be noted: Severe acute respiratory syndrome coronavirus 2; HeLa-ACE2 cells; read-out: Antiviral CoV-2 EC50.
The test system of another data set is OC43 virus. Put plainly: microbe, parasite or virus in culture. Conditions: Betacoronavirus 1, OC43, Huh-7, read-out: Antiviral OC43 EC50 (μM). Format: cell-based.
Another data set addresses 229E Mpro (Human coronavirus 229E (HCoV-229E), UniProt P0C6X1). Format: biochemical.
Another data set has as its system 229E virus. Put plainly: organism not typed. Conditions: Huh-7, read-out: Antiviral 229E EC50 (μM). The format is cell-based.
A further data set deals with SARS-CoV-1 Mpro (Severe acute respiratory syndrome coronavirus (SARS-CoV), UniProt P0C6X7). The format is biochemical.

OC43 Mpro, sequence (P0C6X6 3247-3549 limits assumed): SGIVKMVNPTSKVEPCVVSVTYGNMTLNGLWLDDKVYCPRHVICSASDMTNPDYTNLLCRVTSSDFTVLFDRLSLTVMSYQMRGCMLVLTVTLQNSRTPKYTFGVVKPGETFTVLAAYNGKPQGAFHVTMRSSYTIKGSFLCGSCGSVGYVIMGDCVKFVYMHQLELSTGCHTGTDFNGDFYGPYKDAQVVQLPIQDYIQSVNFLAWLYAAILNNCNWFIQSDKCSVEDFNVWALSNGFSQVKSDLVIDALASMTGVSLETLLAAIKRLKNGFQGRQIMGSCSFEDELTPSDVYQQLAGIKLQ
229E Mpro, sequence (P0C6X1 2966-3267 limits assumed): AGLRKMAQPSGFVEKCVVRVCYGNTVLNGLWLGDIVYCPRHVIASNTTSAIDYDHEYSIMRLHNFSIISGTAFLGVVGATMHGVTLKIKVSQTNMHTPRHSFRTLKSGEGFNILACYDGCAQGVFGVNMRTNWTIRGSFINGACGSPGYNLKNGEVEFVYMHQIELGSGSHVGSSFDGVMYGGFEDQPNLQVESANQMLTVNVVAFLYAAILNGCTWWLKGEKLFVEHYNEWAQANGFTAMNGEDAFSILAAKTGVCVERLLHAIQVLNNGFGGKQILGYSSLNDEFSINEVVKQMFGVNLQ

By Papp is commonly meant the rate of passage across a membrane or cell layer, normalised by area and donor concentration. Low values mean slow passage, high ones fast passage. By EC50 is commonly meant the concentration needed to bring the measured effect to its halfway point. A word on the CLint scaled: it is a measure of how fast metabolising enzymes remove a compound, apart from limits set by blood flow. High values mean rapid turnover, low ones slow turnover. `COc1cccc2[nH]c(=O)cc(C(=O)N[C@@H]3CCN(c4c(Cl)cc(C)cc4C(=O)N4CCOCC4)C3)c12` [Compound 85] had a Papp in the data set “in vitro [1]” of 3.19 ×10⁻⁶ cm/s. For the same compound, the EC50 on MERS Mpro was determined as 1.54 nM; on SARS-CoV-2 Mpro, 1.4 nM; on OC43 Mpro, 2.27 nM; in [4] it was 274 nM; in the data set on OC43 virus, 0.21 µM; at 229E Mpro, 9.16 nM. Also, the results for the EC50 in the data set with 229E virus and on SARS-CoV-1 Mpro were 0.382 µM and 3.13 nM, respectively. Also, the CLint scaled in “in vitro [2]” is 288 mL/min/kg; in “in vitro [3]”, 103 mL/min/kg.
With `COc1cccc2[nH]c(=O)cc(C(=O)N[C@@H]3CCN(c4c(C(=O)N5CCOCC5)cc(C#N)cc4C(F)(F)F)C3)c12` [Compound 9], the Papp in the data set “in vitro [1]” is 0.34 ×10⁻⁶ cm/s. Besides, the EC50 is 1.8 nM at MERS Mpro; 0.47 nM at SARS-CoV-2 Mpro; 2.85 nM on OC43 Mpro; 319 nM in [4]; 0.28 µM in the data set with OC43 virus; 2.01 nM at 229E Mpro. For the same compound, the EC50 is 0.11 µM with 229E virus and 0.79 nM at SARS-CoV-1 Mpro. Also, the CLint scaled is less than 58.3 mL/min/kg in “in vitro [2]” and less than 35 mL/min/kg in the data set “in vitro [3]”.
As to `Cc1cc(C(=O)N2CCOCC2)c(N2C[C@H](NC(=O)c3cc(=O)[nH]c4c(F)cc(F)cc34)CC2=O)c(C2CC2)c1` [Compound 74], the Papp in “in vitro [1]” came out at 3.54 ×10⁻⁶ cm/s. Further, the EC50 at MERS Mpro worked out at 1.29 nM; on SARS-CoV-2 Mpro it was 0.59 nM; on OC43 Mpro it was 3.4 nM; in data set [4] it was 52 nM; in the data set on OC43 virus it was 0.429 µM; at 229E Mpro, 7.24 nM. Besides, the concentration giving a half-maximal response (EC50) in the data set with 229E virus was 0.248 µM; on SARS-CoV-1 Mpro, 1.43 nM. The CLint scaled is less than 56.7 mL/min/kg in “in vitro [2]” and less than 33.3 mL/min/kg in the data set “in vitro [3]”.
